# Measurements: ChEMBL document CHEMBL3507680, “University of Dundee, Gates Library screen for HepG2 cell viability”
# Assay: Human HepG2 cell viability assay in 384 well format
# Assay type: toxicity, cell-based
# Parameters: dose 125 nL, time 70.5 hour; cytotoxicity at 70.5 h: concentration not given beside the values
# Conditions: HepG2 cells, read-out: Inhibition
row,SMILES,cytotoxicity at 70.5 h
1,COC(=O)CCCC(=O)N1CCC(CO)(CCc2ccccc2)CC1,-11.9%
2,Cc1ccsc1C(=O)N1CCc2ncc(Cn3cccn3)n2CC1,-6.33%
3,Cc1cccc(N2CC3(COCCN(c4ccncn4)C3)OCC2=O)c1 (stereo unspecified),0.341%
4,CC(=O)N1CCC2(CC1)C(=O)N(C)c1ccc(F)cc12,-8.53%
5,O=C1COC2(COCCN(c3cnccn3)C2)CN1c1cccc(F)c1 (stereo unspecified),-6.69%
6,Cn1cc(CN2C[C@@H]3CCC[C@@H](OCc4cccnc4)[C@@H]3C2)cn1,3.45%
7,CN1C(=O)CC(c2ccccc2)C12CCN(c1ncc(F)cn1)CC2 (stereo unspecified),-1.24%
8,CC(=O)N1CCc2[nH]nc(C(=O)N3CC=CC3)c2C1,34.9%
9,COC[C@@]12CCC[C@@H]1CN(C(=O)Cc1ccco1)C2,-5.39%
10,Cc1cc(CN2CCC(C3CCN(CCc4ccccc4)C3)CC2)[nH]n1 (stereo unspecified),-0.374%
11,CCCn1nccc1C(=O)N1CCN(C(=O)C2CC2)[C@@H]2CS(=O)(=O)C[C@@H]21,11.1%
12,CC(C)N(CCO)C(=O)C1CCC(=O)N(Cc2ccc(Cl)cc2)C1 (stereo unspecified),-4.75%
13,Cc1cccc(N2CCC3(CCCN3Cc3cn(C)nc3C)CC2)n1,-9.08%
14,CN(C)C(C(=O)N1CCC(CCO)CC1)c1ccccc1F (stereo unspecified),8.83%
15,CNC(=O)c1cn2cc(-c3cccc(Cl)c3)n(CC3CC3)c(=O)c2n1,-8.05%
16,CN(CC1(CO)CCOCC1)[C@@H]1c2ccccc2C2(CCNCC2)[C@H]1O,19%
17,CC(C)N1CCCN(c2nc(-c3cccnc3)nc3c2cnn3C)CC1,36.6%
18,Cc1noc(-c2ccnc(Oc3ccc(CN4CCCC4)cc3C)c2)n1,-4.76%
19,COCCn1ccnc1CN1CCc2[nH]cnc2C1c1ccccn1 (stereo unspecified),-11.2%
20,Cc1ccc(NCCCNc2nccc(-c3cn(C)nc3C)n2)nc1,13.9%
21,O=C1CCc2cc(NC(=O)N3CCCN(Cc4cccs4)CC3)ccc21,-8.02%
22,CC(C)Cn1cncc1CNC1CCCNC1 (stereo unspecified),-4.78%
23,Cc1cc(C)c2nc(C)cc(C(=O)N3CC(O)CO3)c2c1 (stereo unspecified),17.6%

row,SMILES,cytotoxicity at 70.5 h
1,NCCO[C@H]1C[C@@H](O)C12CCN(C(=O)COc1cccc(Cl)c1)CC2,-5.89%
2,CCN(CCn1cccn1)Cc1nc(-c2cccc(C)c2)oc1C,-5.06%
3,CC(C)c1nc(CN(C)C(=O)CCc2ccc3c(c2)OCO3)cs1,-9.76%
4,CCCN1CCCn2nc(CNS(=O)(=O)c3cccc(F)c3)cc2C1,-5.1%
5,CC(c1ccccn1)N(C)Cc1ccc(-n2cncn2)cc1 (stereo unspecified),-8.14%
6,CSCCC(=O)N1CCCN(c2ccccc2C)CC1,13.3%
7,Cn1ccnc1C1CCN(S(=O)(=O)c2ccc3[nH]c(=O)[nH]c3c2)CC1,15.5%
8,CCc1nc(C)sc1CN1CC[C@@](O)(C2CCOCC2)[C@H](C)C1,-12.2%
9,COc1cc(N2CCCC(c3ncc[nH]3)C2)ncn1 (stereo unspecified),-1.53%
10,Cc1ccc2nc(C)cc(C(=O)NCc3csc(N(C)C)n3)c2c1,-2.75%
11,COc1cccc2ccc(CN3CCN(c4cccnc4)CC3)nc12,7.51%
12,COC(=O)NCC(=O)N1CCCC(c2ncc[nH]2)C1 (stereo unspecified),-27.3%
13,Fc1cccc(C2(CNC3CCOC4(CCOCC4)C3)CCOCC2)c1 (stereo unspecified),-5.85%
14,Cc1nn(C)cc1CN(C)c1nccc(-c2cn(C)nc2C)n1,-0.948%
15,CCc1cc(N2CCCC(CC)(C(=O)O)C2)nc(N2CCOCC2)n1 (stereo unspecified),13.3%
16,CNCc1cn(CC2CCN(CC(C)(C)CN3CCCC3)CC2)nn1,-13.6%
17,CCCOC(=O)N1CCCC(c2nnc(CN3CCOCC3)n2C)C1 (stereo unspecified),2.16%
18,Cn1nccc1C(=O)N1CCN(C(=O)C2CCC2)[C@@H]2CS(=O)(=O)C[C@@H]21,-6.57%
19,CSCc1noc(CNC(=O)C2CCN(C(=O)C3CCC3)CC2)n1,-11.8%
20,COc1ccc(Cc2nc3c([nH]2)CC(C)(C)CNC3=O)c(OC)c1,-9.23%
21,CCCOc1ccc(C(=O)N2CCN3CCNC(=O)C3C2)cc1Cl (stereo unspecified),-8.43%
22,Cn1cnc2cc(C(=O)N3CCN(CCO)[C@@H]4CS(=O)(=O)C[C@@H]43)ccc21,-0.937%
23,CCCN(Cc1ccccn1)Cc1ccccc1OC,-6.2%

row,SMILES,cytotoxicity at 70.5 h
1,CC(=O)c1ccc(N2CCCC(CO)(CCc3ccccc3)C2)nc1 (stereo unspecified),-1.42%
2,NC(=O)CN1CCC(C(=O)NCc2ccc3c(c2)OCCCO3)CC1,-8.05%
3,CC1(C)CN(S(=O)(=O)N2CCOCC2)CC1c1ccccc1 (stereo unspecified),1.45%
4,Cc1cc(C)nc(NCc2cc3n(n2)CCCN(C(=O)C2CCC2)C3)n1,-1.4%
5,COc1ncc(-c2nccn2-c2ccccc2CN2CCOCC2)cn1,-7.32%
6,CN1CCC(N2CCC(CN(Cc3ccncc3)C3CCC3)CC2)CC1,-4.29%
7,Cc1cccc(C(Nc2nccc(C)n2)C2CC2)n1 (stereo unspecified),-4.46%
8,CC(C)c1cc(NCc2csc(N(C)C)n2)nc(N)n1,17.1%
9,Cc1ccccc1N1CCCN(C(=O)CCCn2ccnc2C)CC1,-12.2%
10,Cc1nc(CN2CCCCC2CCc2cccs2)co1 (stereo unspecified),-9.07%
11,COc1ccc2c(c1)OCC(Cc1cc(N3CCCC3)cnn1)C2 (stereo unspecified),1.96%
12,COc1ccc(-n2cccn2)c(CN2CCC3(CCCN(C)C3=O)C2)c1 (stereo unspecified),-9.91%
13,CCn1ncnc1CN1CCC(CNC(=O)c2ccccc2C#N)C1 (stereo unspecified),0.027%
14,O=C(Nc1ccccc1)c1cccc(S(=O)(=O)NC[C@@H]2C[C@H](F)CN2)c1,6.01%
15,NC(=O)c1noc(Cn2ncc3ccccc3c2=O)n1,12.9%
16,Cc1ccc2c(c1)c(CNC(C)Cn1ccnc1)nn2C (stereo unspecified),-5.3%
17,O=S(=O)(CCNCc1cc(O)c2cc(F)ccc2n1)N1CCCC1,17.6%
18,CCN(CCO)C[C@@H]1CN(c2cccc(C(F)(F)F)n2)C[C@@H]1CO,-11.5%
19,COCCCN1CCCC2(CCN(S(=O)(=O)c3cccnc3)C2)C1=O (stereo unspecified),9.1%
20,CC(NS(C)(=O)=O)C(=O)N(C)Cc1csc(-c2cccs2)n1 (stereo unspecified),-13.4%
21,CC1(C)CNC(=O)c2nc(C3CCN(C(=O)C4CC4)CC3)[nH]c2C1,-11%
22,CNC(=O)C(C)(C)N(C)C(=O)c1cc(COc2ccccc2OC)[nH]n1,-5.11%
23,CN(CC1Cc2ccccc2CN1C)C(=O)CSc1nccn1C (stereo unspecified),-8.61%

row,SMILES,cytotoxicity at 70.5 h
1,CC(C)Cc1ncc2c(n1)CN(c1cc(N)nc(N)n1)C2,-1.3%
2,CC(C)Cc1noc(CN(C)C[C@]2(O)CCCN3CCCC[C@@H]32)n1,-12.8%
3,COc1ccc(C(=O)N2CCC(c3nccn3C(C)C)CC2)cc1OC,22.5%
4,CC(=O)Nn1c(C)cc(CN2CCCN(Cc3ccncc3)CC2)c1C,-0.666%
5,COc1cccc(N2CCN(Cc3nccc(OC)c3OC)CC2=O)c1,-0.0493%
6,Cc1cc(N2CCCN3CCC[C@H]3C2)n2nc(C)c(C)c2n1,-4.24%
7,Cc1ccc2nc(CN3CCCCC3CCn3cccn3)cn2c1 (stereo unspecified),6.68%
8,CN(Cc1cccc(-n2cccn2)c1)Cc1c[nH]cn1,-0.523%
9,CC1(Cc2cccnc2)NCCc2[nH]cnc21 (stereo unspecified),10.5%
10,Cc1cc(F)ccc1S(=O)(=O)N1C[C@@H](C)[C@@](C)(O)C1,-3.25%
11,CC(C)N1CCC(N2CCCC(C(=O)NCC3(C)COC3)C2)CC1 (stereo unspecified),-3.7%
12,CCN(CC)C(=O)C1CCCN(c2ncnc3oc(C)nc23)C1 (stereo unspecified),-5.71%
13,CCc1noc(CN(C)C(=O)c2ccccc2-c2ncn[nH]2)n1,-2.67%
14,CS(=O)(=O)N1C[C@@H]2CC[C@H](C1)N(C(=O)Cn1ccc3ccccc31)C2,-4.09%
15,Cn1cc(C(=O)N2CC[C@H](N3CCOCC3)[C@H](CCCO)C2)cn1,-12.1%
16,CCCc1nc(C)cc(N2CCC3(CCC(=O)N(CCO)C3)CC2)n1,-4.4%
17,COCCn1ccnc1-c1cc(CN2CCCCC2)cs1,33.9%
18,CSCc1noc(CNC(=O)C2CCN(C(C)C)CC2)n1,-12%
19,Cc1nnc(N2CCC(CCn3ccnc3C)CC2)o1,-5.62%
20,CC(=O)NCCC1CCCCN1S(=O)(=O)c1ccc2ccccc2c1 (stereo unspecified),4.83%
21,CN(C)c1ccc(C(=O)NCCCc2ccccn2)cn1,-1.92%
22,Cc1ccnc(Cn2cc(-c3cccc(C(C)N(C)C)c3)nn2)c1 (stereo unspecified),-6.95%
23,COc1ncc(-c2ccc(O)cc2)c(OC)n1,-6.77%

row,SMILES,cytotoxicity at 70.5 h
1,Cc1cc(C(=O)N2CCCC(C(=O)c3cccs3)C2)c(=O)[nH]c1C (stereo unspecified),17.8%
2,CCCc1ccc(CN2CCN(C(=O)NCC)[C@H]3CS(=O)(=O)C[C@H]32)o1,-15.3%
3,CSCC(=O)N1CCCC(CO)(CC2CC2)C1 (stereo unspecified),-11%
4,Cc1ccc([C@@H]2CN(C(=O)c3ccsc3)C[C@H]2NC(=O)C2CC2)cc1,-8.66%
5,CC(C)c1nc(CN(C)C(=O)[C@H](N)Cc2ccc(Cl)cc2)cs1,2.45%
6,CC(C)N1CCCC2(CCN(c3nccc(C(F)(F)F)n3)C2)C1=O (stereo unspecified),-3.02%
7,Cc1cc(C)c2c(c1)C(CC(=O)O)C(=O)N2 (stereo unspecified),24.2%
8,CC(C)c1cc(CN2CCN(c3cccnc3)CC2)n(C)n1,5.33%
9,Cc1cc(N2CCC3(CCCN(C4CCOCC4)C3=O)C2)ccn1 (stereo unspecified),-4.29%
10,CN1C(=O)C2(CCN(C(=O)c3ccccc3)CC2)c2cc(F)ccc21,-7.93%
11,CN1CCC2(CC1)C(=O)N(C)c1ccc(F)cc12,27.9%
12,Cc1ccsc1C(=O)N1CCc2ncc(CN(C)C)n2CC1,-7.39%
13,Cc1cc(C(=O)N2CCc3ncc(CN4CCCC4)n3CC2)no1,-11%
14,O=C(c1cscn1)N1CCc2ncc(CN3CCCC3)n2CC1,-8.65%
15,COC1CCC[C@@H]2CN(Cc3csc(C)n3)C[C@H]12 (stereo partly specified),-4.08%
16,Cn1ccnc1C(=O)NC[C@@H]1OC[C@H]2CN(CC3CC3)CC[C@H]21,-9.31%
17,CN(C)C(=O)COC1COC2(CCN(CC3CC3)CC2)C1 (stereo unspecified),-5.8%
18,O=C(Nc1ccccc1)c1ccc2c(c1)C1(CCCCC1)CN2,-2.11%
19,CCCN1CCC(c2nc3ccc(NCc4cccnc4)cn3n2)CC1,-10.3%
